Values of other authors, collected in publication PMC3065555 (European journal of medicinal chemistry, 2011).

Target: SERCA (Oryctolagus cuniculus, UniProt P04191)
Settings: training set compounds previously characterized; ref [1], [6], [32]

Chain of SERCA (P04191 1-994 isoform P04191-2): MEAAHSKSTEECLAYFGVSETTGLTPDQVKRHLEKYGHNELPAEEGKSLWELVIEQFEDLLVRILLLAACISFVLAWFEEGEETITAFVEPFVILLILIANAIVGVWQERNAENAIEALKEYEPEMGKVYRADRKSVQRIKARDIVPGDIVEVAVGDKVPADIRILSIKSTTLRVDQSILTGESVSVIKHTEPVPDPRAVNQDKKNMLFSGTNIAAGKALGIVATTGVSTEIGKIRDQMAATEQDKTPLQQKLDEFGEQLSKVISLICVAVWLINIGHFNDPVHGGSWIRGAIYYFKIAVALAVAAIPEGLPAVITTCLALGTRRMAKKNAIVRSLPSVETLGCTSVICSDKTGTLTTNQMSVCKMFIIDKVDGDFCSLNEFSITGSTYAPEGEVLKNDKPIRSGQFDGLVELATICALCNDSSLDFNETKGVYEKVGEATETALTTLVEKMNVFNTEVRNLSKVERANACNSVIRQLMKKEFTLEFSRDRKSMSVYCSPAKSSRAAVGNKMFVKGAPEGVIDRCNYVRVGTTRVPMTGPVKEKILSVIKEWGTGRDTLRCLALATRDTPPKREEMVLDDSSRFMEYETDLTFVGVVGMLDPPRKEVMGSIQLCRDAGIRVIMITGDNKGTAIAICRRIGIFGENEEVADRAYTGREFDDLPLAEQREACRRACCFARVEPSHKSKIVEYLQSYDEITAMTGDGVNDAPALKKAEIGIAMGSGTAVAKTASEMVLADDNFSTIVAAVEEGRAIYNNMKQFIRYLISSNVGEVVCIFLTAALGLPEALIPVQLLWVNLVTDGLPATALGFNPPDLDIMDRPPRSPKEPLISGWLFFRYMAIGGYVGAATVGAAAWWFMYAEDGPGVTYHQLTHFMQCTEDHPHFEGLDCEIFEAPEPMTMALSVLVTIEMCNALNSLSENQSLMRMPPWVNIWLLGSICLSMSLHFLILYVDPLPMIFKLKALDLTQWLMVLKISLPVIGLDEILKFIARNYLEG

IC50	SMILES
inactive	CC(C)(C)c1ccc(C(C)(C)C)cc1 [1,4-di-tert-butylbenzene]
6.81 µM	CC(C)(C)c1ccc(C(C)(C)C)c(O)c1 [2,5-di-tert-butylphenol]
